For data set [1], the target named is Glycogen synthase kinase-3 alpha (Homo sapiens, UniProt P49840). Put plainly: Selectivity interaction (Kinase panel (Z-LYTE Assay)) EUB0001632a GSK3A. Particulars: at 10 µM.
The target of data set [2] is Myosin light chain kinase, smooth muscle (Homo sapiens, UniProt Q15746). Put plainly: Selectivity interaction (KinomeScan (DiscoverX)) EUB0000666a MYLK. Particulars: at 10 µM.
The target of data set [3] is Cyclin-dependent kinase 5/CDK5 activator 1 (Homo sapiens) (UniProt Q00535+Q15078). Put plainly: Selectivity interaction (SelectScreen profiling (Invitrogen)) EUB0000607a CDK5. Format: protein-complex assay. Particulars: at 2 µM.
Data set [4] deals with T1, Non-receptor tyrosine-protein kinase TNK1 (Homo sapiens) (UniProt Q13470).
T1 sequence (whole entry): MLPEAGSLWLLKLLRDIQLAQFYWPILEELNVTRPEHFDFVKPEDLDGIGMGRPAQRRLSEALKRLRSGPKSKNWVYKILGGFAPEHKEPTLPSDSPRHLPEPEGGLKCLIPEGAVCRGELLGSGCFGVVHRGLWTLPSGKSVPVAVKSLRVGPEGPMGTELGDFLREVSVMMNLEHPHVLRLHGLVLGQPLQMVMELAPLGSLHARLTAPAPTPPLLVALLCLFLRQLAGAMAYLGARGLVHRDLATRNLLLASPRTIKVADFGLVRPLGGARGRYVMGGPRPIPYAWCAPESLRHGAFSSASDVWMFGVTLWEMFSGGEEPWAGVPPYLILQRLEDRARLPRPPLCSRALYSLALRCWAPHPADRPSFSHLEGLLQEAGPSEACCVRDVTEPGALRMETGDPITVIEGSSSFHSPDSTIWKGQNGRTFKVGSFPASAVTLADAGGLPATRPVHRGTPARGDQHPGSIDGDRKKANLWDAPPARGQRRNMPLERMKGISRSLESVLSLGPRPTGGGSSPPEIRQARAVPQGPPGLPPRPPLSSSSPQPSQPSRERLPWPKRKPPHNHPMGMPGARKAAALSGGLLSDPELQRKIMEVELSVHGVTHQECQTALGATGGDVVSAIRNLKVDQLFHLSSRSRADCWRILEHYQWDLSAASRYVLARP
The experiment in a line: Selectivity interaction (KinomeScan (DiscoverX)) EUB0000607a TNK1. Particulars: at 10 µM.

In data set [5] the target is Homeodomain-interacting protein kinase 3 (Homo sapiens, UniProt Q9H422). The experiment in a line: Selectivity interaction (KinomeScan (DiscoverX)) EUB0000045b HIPK3.
Sequence of Homeodomain-interacting protein kinase 3 (Q9H422 whole entry, looked up): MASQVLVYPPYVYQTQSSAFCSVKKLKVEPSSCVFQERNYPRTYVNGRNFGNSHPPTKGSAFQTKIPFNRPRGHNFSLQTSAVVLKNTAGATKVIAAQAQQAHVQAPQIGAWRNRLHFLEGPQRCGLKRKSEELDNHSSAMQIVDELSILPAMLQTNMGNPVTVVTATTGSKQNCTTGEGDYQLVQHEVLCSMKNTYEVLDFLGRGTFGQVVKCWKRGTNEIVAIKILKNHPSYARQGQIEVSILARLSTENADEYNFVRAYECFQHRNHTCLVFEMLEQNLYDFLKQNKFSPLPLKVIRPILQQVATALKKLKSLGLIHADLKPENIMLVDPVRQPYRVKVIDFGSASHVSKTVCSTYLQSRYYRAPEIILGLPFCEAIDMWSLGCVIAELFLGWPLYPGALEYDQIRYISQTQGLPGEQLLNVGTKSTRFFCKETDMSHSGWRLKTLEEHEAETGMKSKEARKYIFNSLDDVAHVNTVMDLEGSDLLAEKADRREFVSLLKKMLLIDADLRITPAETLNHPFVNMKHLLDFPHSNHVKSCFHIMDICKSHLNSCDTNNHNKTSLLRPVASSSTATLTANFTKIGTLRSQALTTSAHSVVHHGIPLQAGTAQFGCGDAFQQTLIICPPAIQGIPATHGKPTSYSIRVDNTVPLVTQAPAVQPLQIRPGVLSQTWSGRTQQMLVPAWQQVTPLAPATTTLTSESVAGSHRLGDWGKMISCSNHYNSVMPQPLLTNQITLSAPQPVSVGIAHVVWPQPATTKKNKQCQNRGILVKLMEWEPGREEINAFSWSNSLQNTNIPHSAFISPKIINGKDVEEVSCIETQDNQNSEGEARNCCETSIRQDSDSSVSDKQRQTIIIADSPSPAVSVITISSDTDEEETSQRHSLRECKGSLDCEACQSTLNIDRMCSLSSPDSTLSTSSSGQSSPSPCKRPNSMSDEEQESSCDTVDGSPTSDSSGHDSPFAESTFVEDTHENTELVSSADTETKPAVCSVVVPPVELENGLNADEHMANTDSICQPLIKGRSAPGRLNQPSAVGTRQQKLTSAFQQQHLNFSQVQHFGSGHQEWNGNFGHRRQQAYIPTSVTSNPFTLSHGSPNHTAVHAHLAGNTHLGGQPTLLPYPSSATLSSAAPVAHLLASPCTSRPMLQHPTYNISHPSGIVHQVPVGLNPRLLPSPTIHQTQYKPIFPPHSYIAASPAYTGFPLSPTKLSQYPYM
Data set [6] concerns the target T2, Mitogen-activated protein kinase kinase kinase kinase 2 (Homo sapiens) (UniProt Q12851).
T2 sequence (whole entry): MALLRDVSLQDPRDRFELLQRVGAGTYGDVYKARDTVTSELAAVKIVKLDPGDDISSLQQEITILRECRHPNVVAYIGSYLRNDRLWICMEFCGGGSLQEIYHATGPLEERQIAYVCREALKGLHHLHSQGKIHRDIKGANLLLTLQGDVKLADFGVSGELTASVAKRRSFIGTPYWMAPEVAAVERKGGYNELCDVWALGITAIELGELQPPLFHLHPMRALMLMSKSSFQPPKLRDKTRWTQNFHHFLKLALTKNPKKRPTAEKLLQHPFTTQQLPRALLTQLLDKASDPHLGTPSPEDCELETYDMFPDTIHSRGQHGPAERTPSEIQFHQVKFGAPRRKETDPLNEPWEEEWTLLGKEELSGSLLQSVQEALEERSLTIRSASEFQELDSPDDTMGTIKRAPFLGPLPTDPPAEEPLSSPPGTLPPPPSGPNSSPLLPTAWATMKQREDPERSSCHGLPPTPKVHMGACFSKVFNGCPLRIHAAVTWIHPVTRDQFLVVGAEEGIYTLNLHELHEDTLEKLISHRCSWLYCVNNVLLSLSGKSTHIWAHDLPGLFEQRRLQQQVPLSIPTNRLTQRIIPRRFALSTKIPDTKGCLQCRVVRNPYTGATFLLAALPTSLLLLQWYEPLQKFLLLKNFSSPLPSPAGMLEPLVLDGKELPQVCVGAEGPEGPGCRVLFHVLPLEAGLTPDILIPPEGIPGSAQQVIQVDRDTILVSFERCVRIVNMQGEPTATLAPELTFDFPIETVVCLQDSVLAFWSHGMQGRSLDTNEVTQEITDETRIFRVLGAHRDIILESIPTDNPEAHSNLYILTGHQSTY
The experiment in a line: Selectivity interaction (KinomeScan (DiscoverX)) EUB0000045b MAP4K2.

The target in data set [7] is Serine/threonine-protein kinase 32B (Homo sapiens) (UniProt Q9NY57). The experiment in a line: Selectivity interaction (KinomeScan (DiscoverX)) EUB0001049a STK32B. Particulars: at 1 µM.
The target in a further data set is KCNQ1 (Homo sapiens, UniProt P51787). Put plainly: Selectivity interaction (Panel of kinases, GPCRs, ion channels and transporters (enzymatic assay)) EUB0000223bCl KCNQ1.
Data set [8] addresses Serine/threonine-protein kinase MARK2 (Homo sapiens) (UniProt Q7KZI7). Put plainly: Selectivity interaction (Upstate Kinase Profiler service (Millipore)) EUB0000056c MARK2. Particulars: at 1 µM.
Data set [9] addresses Mitogen-activated protein kinase kinase kinase 11 (Homo sapiens) (UniProt Q16584). The experiment in a line: Selectivity interaction (KinomeScan (DiscoverX)) EUB0000655a MAP3K11. Particulars: at 10 µM.
Data set [10] has as its system Hepatocyte growth factor receptor (Homo sapiens), P08581 [M1250T]. The experiment in a line: (§1) Selectivity interaction (KinomeScan (DiscoverX)) EUB0000092b MET. Particulars: at 10 µM.
The test system of data set [11] is Hepatocyte growth factor receptor (Homo sapiens), P08581 [Y1235D]. The data set is described as §1. Particulars: at 10 µM.
Sequence of Hepatocyte growth factor receptor (Homo sapiens), P08581 [Y1235D] (P08581 whole entry Y1235D): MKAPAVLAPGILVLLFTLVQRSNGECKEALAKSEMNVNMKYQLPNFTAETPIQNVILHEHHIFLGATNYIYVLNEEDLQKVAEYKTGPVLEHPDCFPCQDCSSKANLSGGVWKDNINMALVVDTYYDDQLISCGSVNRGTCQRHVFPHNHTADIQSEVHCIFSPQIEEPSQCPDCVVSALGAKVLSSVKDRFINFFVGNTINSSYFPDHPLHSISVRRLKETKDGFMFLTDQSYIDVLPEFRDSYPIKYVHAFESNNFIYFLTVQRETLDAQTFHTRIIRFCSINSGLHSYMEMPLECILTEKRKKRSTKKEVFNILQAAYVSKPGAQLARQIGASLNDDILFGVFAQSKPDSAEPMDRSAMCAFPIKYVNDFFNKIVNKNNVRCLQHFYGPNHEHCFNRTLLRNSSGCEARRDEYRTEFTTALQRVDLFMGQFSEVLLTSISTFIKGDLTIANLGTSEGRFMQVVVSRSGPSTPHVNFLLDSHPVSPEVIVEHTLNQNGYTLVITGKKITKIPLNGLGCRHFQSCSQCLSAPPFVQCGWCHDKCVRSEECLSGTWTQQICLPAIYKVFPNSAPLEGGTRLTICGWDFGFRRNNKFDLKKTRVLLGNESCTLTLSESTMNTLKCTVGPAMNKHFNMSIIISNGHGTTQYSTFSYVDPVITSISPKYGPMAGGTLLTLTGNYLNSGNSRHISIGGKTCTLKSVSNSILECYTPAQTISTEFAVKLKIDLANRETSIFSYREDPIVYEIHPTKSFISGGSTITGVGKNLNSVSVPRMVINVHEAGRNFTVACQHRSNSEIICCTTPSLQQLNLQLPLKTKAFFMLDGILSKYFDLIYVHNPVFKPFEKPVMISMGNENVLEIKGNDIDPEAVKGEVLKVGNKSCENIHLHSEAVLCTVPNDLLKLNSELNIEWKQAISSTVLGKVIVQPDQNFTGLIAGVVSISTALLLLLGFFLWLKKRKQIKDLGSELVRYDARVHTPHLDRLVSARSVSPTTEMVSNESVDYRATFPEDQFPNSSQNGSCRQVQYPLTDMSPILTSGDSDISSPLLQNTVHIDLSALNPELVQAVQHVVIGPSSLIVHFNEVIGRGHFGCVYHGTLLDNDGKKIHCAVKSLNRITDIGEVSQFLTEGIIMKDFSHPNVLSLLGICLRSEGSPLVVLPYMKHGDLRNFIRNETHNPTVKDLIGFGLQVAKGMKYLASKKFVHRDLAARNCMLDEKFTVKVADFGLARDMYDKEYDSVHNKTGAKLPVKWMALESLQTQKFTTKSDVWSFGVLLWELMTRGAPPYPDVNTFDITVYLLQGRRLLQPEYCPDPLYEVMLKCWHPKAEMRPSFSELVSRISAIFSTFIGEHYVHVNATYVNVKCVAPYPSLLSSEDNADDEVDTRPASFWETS
Data set [12] addresses Hepatocyte growth factor receptor (Homo sapiens, UniProt P08581). The description is as §1. Particulars: at 10 µM.
For data set [13], the target named is NT-3 growth factor receptor (Homo sapiens, UniProt Q16288). Put plainly: Selectivity interaction (KinomeScan (DiscoverX)) EUB0000229b NTRK3. Particulars: at 10 µM.
The target in data set [14] is Ribosomal protein S6 kinase alpha-5 (Homo sapiens) (UniProt O75582). The experiment in a line: Selectivity interaction (Kinase panel (KiNativ target engagement assay in Jurkat cells)) EUB0001635a RPS6KA5. The class given is cell-based. Particulars: Selectivity number of off-targets 0.0, Selectivity number of targets 233.0, Source Knowledge https://www.sciencedirect.com/science/article/pii/S2451945619300674?via%3Dihub, at 1 µM.
Sequence of Ribosomal protein S6 kinase alpha-5 (Homo sapiens) (O75582 whole entry, looked up): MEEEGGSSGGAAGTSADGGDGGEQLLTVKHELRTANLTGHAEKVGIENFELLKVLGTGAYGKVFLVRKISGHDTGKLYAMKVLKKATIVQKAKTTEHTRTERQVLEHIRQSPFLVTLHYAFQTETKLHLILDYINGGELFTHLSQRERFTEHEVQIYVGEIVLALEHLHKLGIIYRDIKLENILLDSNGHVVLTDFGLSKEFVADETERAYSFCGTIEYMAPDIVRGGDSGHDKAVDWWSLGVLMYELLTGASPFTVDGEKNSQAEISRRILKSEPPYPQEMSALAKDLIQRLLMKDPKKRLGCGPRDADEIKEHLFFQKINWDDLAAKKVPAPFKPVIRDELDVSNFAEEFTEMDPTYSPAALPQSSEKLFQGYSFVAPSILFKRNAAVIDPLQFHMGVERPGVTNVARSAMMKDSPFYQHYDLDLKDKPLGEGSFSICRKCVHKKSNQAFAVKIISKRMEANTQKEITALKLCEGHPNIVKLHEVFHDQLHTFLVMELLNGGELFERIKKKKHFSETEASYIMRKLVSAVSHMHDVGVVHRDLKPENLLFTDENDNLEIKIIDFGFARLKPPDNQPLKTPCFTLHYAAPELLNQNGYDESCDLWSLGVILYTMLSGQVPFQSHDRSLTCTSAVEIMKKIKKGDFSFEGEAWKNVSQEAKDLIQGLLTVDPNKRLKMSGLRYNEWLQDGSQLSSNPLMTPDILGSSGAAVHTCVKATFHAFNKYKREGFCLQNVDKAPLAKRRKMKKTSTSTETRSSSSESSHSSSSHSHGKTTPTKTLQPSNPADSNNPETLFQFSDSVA

Sequence of Serine/threonine-protein kinase MARK2 (Homo sapiens) (Q7KZI7 whole entry): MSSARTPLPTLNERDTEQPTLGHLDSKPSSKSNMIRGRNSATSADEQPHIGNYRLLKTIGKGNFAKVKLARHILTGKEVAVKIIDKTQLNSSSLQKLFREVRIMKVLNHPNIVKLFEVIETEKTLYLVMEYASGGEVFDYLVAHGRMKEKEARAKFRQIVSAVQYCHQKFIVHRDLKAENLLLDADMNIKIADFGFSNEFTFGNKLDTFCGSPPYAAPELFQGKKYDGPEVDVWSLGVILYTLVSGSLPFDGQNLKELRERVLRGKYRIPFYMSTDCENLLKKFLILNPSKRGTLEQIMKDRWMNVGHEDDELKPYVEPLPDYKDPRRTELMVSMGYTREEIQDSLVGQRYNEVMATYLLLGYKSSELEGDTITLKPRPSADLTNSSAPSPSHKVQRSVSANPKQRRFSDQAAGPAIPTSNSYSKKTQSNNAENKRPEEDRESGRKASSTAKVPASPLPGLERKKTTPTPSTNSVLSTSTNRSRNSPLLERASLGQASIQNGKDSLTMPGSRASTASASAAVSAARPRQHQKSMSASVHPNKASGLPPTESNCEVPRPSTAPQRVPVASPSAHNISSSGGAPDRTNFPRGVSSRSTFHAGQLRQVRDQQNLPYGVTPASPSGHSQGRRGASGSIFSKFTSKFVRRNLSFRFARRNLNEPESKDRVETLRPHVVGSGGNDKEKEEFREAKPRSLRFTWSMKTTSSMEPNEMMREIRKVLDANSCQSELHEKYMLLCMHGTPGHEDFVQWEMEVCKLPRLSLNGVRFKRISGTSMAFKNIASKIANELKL
Sequence of Mitogen-activated protein kinase kinase kinase 11 (Homo sapiens) (Q16584 whole entry, looked up): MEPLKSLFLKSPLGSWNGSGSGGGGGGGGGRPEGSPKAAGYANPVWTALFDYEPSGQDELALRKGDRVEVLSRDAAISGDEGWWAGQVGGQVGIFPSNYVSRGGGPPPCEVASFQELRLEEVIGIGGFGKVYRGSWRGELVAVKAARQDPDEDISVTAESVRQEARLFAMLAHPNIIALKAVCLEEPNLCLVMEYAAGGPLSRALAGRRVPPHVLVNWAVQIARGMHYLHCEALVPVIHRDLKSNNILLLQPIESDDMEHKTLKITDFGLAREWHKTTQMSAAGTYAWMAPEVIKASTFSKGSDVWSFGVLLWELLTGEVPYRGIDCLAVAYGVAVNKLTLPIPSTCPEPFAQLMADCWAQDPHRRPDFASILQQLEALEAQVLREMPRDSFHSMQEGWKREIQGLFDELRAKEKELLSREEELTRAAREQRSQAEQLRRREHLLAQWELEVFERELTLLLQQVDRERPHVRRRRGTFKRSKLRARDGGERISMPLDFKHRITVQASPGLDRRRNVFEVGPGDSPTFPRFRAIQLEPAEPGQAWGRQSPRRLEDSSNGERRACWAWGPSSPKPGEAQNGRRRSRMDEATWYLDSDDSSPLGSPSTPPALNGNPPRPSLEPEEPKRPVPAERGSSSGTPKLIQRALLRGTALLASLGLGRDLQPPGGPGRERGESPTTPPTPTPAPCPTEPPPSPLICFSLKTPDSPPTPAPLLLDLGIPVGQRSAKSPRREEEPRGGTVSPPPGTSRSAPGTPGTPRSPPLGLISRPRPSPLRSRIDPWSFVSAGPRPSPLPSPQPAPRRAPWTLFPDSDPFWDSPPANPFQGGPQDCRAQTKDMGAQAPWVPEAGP

Molecule `Cn1cc(-n2cnc3c(NCc4nc5cc(Cl)c(Cl)cc5[nH]4)nc(N4CCOCC4)nc32)cn1` returned a % of control in data set [1] of 82.2%. Take `O=C(NOC[C@H](O)CO)c1ccc(F)c(F)c1Nc1ccc(I)cc1F`: the % of control in data set [2] amounted to 100%. In data set [3], `CNC(=O)Nc1ccc(-c2nc(N3CC4CCC(C3)O4)c3cnn(C4CCC5(CC4)OCCO5)c3n2)cc1` had a % of inhibition of 1%. The % of control in [4] turned out to be 78%. In the case of `C=CC(=O)Nc1cc(-n2c(=O)ccc3cnc4ccc(-c5ccc(NS(C)(=O)=O)cc5)cc4c32)ccc1C`, the % of control stood at 100% in [5] (at 1 µM), 100% in data set [5] (at 10 µM), 100% in [6] (at 1 µM) and 89% in data set [6] (at 10 µM). `COc1cc(Nc2nc(C)cc(-c3cnn4nc(OC)ccc34)n2)cc(C(F)(F)F)c1` came in with a % of control in data set [7] of 100%. `COc1cc(C(=O)N2CC[C@@H](O)[C@@H](N)C2)cc2nc(-c3cc4ccccc4n3CC3CC3)n(C)c12` gave an XC50 on KCNQ1 of more than 25.1 µM. In the case of `Cc1ccc(-c2ccc3c(ccc4sc5c(c43)NC[C@@H](C)NC5=O)n2)cn1`, the % of inhibition in [8] is 6%.

Consider `CN(C)CCOc1ccc(-c2nc(-c3ccncc3)c(-c3ccc4c(c3)CC/C4=N\O)[nH]2)cc1`, for which, in data set [9], the % of control is 100%. Take `CCC(=O)N1CCN(c2ccc(-n3c(=O)ccc4cnc5ccc(-c6cnc7ccccc7c6)cc5c43)cc2C(F)(F)F)CC1`: the results for the % of control in data set [10], in [11] and in data set [12] were 79%, 100% and 84%, respectively. As for `COc1cc(N(C)c2ccnc3ccc(C(F)(F)F)cc23)cc(OC)c1OC`, the % binding in data set [13] came to 100%. In turn, `C=CC(=O)Nc1ccc(C(=O)Nc2[nH]nc3c2CN(C(=O)N[C@H](CN(C)C)c2ccccc2)C3(C)C)cc1` had a % of engagement in [14] of 5.7%.

The record behind these values is ChEMBL document CHEMBL5465560, “Selectivity Literature for EUbOPEN Chemogenomic Library” (2024).
